target: T1, recombinant human ALX receptor (Homo sapiens, UniProt P25090); assay: Intracellular calcium measurements (FLIPR), ALX receptor agonistic activity; type: cell-based; conditions: HEK293-hALXR-Gα16 cells, Fluo-4 calcium signal, normalized to WKYMVm 10 nM
T1 construct: expressed in transfected cells; host or cells: HEK293 (HEK293-hALXR-Gα16)
T1 sequence (P25090 1-351): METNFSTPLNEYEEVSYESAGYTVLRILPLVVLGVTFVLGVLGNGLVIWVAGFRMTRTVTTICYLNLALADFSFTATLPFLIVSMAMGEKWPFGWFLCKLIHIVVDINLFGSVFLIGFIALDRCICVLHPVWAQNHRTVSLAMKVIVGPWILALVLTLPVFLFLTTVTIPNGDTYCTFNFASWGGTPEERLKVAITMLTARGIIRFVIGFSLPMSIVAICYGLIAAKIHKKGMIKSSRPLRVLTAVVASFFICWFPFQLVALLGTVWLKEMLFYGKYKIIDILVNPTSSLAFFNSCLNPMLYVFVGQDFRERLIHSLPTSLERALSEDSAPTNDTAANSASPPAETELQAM
Method in brief: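 Agonist-induced calcium flux was read by FLIPR (488/540 nm) as baseline-subtracted peak emission, expressed relative to WKYMVm at 10 nM final. Cells used: HEK293-hALXR-Gα16, dye-loaded 60 min at 37° C. with 1 μM Fluo-4 AM before compound dose-response addition.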

Compound | EC50 [nM]
COc1ccc(C[C@@H](NC(=O)NC2CCN(C(C)=O)CC2)c2nc3ccccc3[nH]2)cc1 [Example 138, (R)-1-(1-(1H-Benzo[d]imidazol-2-yl)-2-(4-methoxyphenyl)ethyl)-3-(1-acetylpiperidin-4-yl)urea] | 789
COC(=O)N1CCC(NC(=O)N[C@H](Cc2ccc(OC)cc2)c2nc3ccccc3[nH]2)CC1 [Example 139, (R)-Methyl 4-(3-(1-(1H-benzo[d]imidazol-2-yl)-2-(4-methoxyphenyl)ethyl)ureido)piperidine-1-carboxylate] | 414
O=C(NC(Cc1ccc(OC(F)(F)F)cc1)c1nc2ccccc2[nH]1)NC1CN2CCC1CC2 (stereo not shown) [Example 141, 1-(1-(1H-Benzo[d]imidazol-2-yl)-2-(4-(trifluoromethoxy)phenyl)ethyl)-3-(quinuclidin-3-yl)urea] | 834
COc1ccc(C[C@@H](NC(=O)N[C@@H]2CCN(C(C)=O)C2)c2nc3ccccc3[nH]2)cc1 [Example 142, 1-((R)-1-(1H-Benzo[d]imidazol-2-yl)-2-(4-methoxyphenyl)ethyl)-3-((R)-1-acetylpyrrolidin-3-yl)urea] | 306
COc1ccc(C[C@@H](NC(=O)NCCN2CCN(C(=O)OC(C)(C)C)CC2)c2nc3ccccc3[nH]2)cc1 [Example 144, (R)-tert-Butyl 4-(2-(3-(1-(1H-benzo[d]imidazol-2-yl)-2-(4-methoxyphenyl)ethyl)ureido)ethyl)piperazine-1-carboxylate] | 947
COc1ccc(C[C@@H](NC(=O)NCC2CCN(C(=O)OC(C)(C)C)CC2)c2nc3ccccc3[nH]2)cc1 [Example 146, (R)-tert-Butyl 4-((3-(1-(1H-benzo[d]imidazol-2-yl)-2-(4-methoxyphenyl)ethyl)ureido)methyl)piperidine-1-carboxylate] | 512
COc1ccc(C[C@@H](NC(=O)NCC2CCN(C)CC2)c2nc3ccccc3[nH]2)cc1 [Example 147, (R)-1-(1-(1H-Benzo[d]imidazol-2-yl)-2-(4-methoxyphenyl)ethyl)-3-((1-methylpiperidin-4-yl)methyl)urea] | 493
COc1ccc(C[C@@H](NC(=O)NCCN2CCNCC2)c2nc3ccccc3[nH]2)cc1 [Example 150, (R)-1-(1-(1H-Benzo[d]imidazol-2-yl)-2-(4-methoxyphenyl)ethyl)-3-(2-(piperazin-1-yl)ethyl)urea] | 209
COc1ccc(C[C@@H](NC(=O)NCCN2CCN(C)CC2)c2nc3ccccc3[nH]2)cc1 [Example 151, (R)-1-(1-(1H-Benzo[d]imidazol-2-yl)-2-(4-methoxyphenyl)ethyl)-3-(2-(4-methylpiperazin-1-yl)ethyl)urea] | 572
COc1ccc(C[C@@H](NC(=O)NC2CN3CCC2CC3)c2nc3ccc(C#N)cc3[nH]2)cc1 (stereo partly drawn) [Example 154, 1-((R)-1-(6-Cyano-1H-benzo[d]imidazol-2-yl)-2-(4-methoxyphenyl)ethyl)-3-(quinuclidin-3-yl)urea] | 6.8
COc1ccc(C[C@@H](NC(=O)NCCC2CCN(C(=O)OC(C)(C)C)CC2)c2nc3ccccc3[nH]2)cc1 [Example 155, (R)-tert-Butyl 4-(2-(3-(1-(1H-benzo[d]imidazol-2-yl)-2-(4-methoxyphenyl)ethyl)ureido)ethyl)piperidine-1-carboxylate] | 489
COc1ccc(C[C@@H](NC(=O)NCCC2CCN(C(C)=O)CC2)c2nc3ccccc3[nH]2)cc1 [Example 159, (R)-1-(1-(1H-Benzo[d]imidazol-2-yl)-2-(4-methoxyphenyl)ethyl)-3-(2-(1-acetylpiperidin-4-yl)ethyl)urea] | 876
COC(=O)N1CC2CCC1CN2C(=O)N[C@H](Cc1ccc(OC)cc1)c1nc2ccccc2[nH]1 (stereo partly drawn) [Example 162, Methyl 5-(((R)-1-(1H-benzo[d]imidazol-2-yl)-2-(4-methoxyphenyl)ethyl)carbamoyl)-2,5-diazabicyclo[2.2.2]octane-2-carboxylate] | 866

Continued by falling EC50, values first:

EC50 [nM] | Compound
187 | COc1ccc(C[C@@H](NC(=O)NC2CCN(S(C)(=O)=O)C2)c2nc3ccccc3[nH]2)cc1 (stereo partly drawn) [Example 157, 1-((R)-1-(1H-Benzo[d]imidazol-2-yl)-2-(4-methoxyphenyl)ethyl)-3-(1-(methylsulfonyl)pyrrolidin-3-yl)urea]
168 | COc1ccc(C[C@@H](NC(=O)NCC2CCNCC2)c2nc3ccccc3[nH]2)cc1 [Example 149, (R)-1-(1-(1H-Benzo[d]imidazol-2-yl)-2-(4-methoxyphenyl)ethyl)-3-(piperidin-4-ylmethyl)urea]
158 | COC(=O)N1CCC(NC(=O)N[C@H](Cc2ccc(OC)cc2)c2nc3ccccc3[nH]2)C1 (stereo partly drawn) [Example 158, Methyl 3-(3-((R)-1-(1H-benzo[d]imidazol-2-yl)-2-(4-methoxyphenyl)ethyl)ureido)pyrrolidine-1-carboxylate]
151 | COc1ccc(C[C@@H](NC(=O)NCCC2CCN(C)CC2)c2nc3ccccc3[nH]2)cc1 [Example 160, (R)-1-(1-(1H-Benzo[d]imidazol-2-yl)-2-(4-methoxyphenyl)ethyl)-3-(2-(1-methylpiperidin-4-yl)ethyl)urea]
108 | COc1ccc(C[C@@H](NC(=O)NC2CCN(S(C)(=O)=O)CC2)c2nc3ccccc3[nH]2)cc1 [Example 143, (R)-1-(1-(1H-Benzo[d]imidazol-2-yl)-2-(4-methoxyphenyl)ethyl)-3-(1-(methylsulfonyl)piperidin-4-yl)urea]
94 | COc1ccc(C[C@@H](NC(=O)NCCC2CCNCC2)c2nc3ccccc3[nH]2)cc1 [Example 156, (R)-1-(1-(1H-Benzo[d]imidazol-2-yl)-2-(4-methoxyphenyl)ethyl)-3-(2-(piperidin-4-yl)ethyl)urea]
87 | COc1ccc(C[C@@H](NC(=O)N2CC3CCC2CN3C)c2nc3ccccc3[nH]2)cc1 (stereo partly drawn) [Example 168, N—((R)-1-(1H-Benzo[d]imidazol-2-yl)-2-(4-methoxyphenyl)ethyl)-5-methyl-2,5-diazabicyclo[2.2.2]octane-2-carboxamide]
62 | COc1ccc(C[C@@H](NC(=O)N[C@@H]2CCCN(C(C)=O)C2)c2nc3ccccc3[nH]2)cc1 [Example 140, 1-((R)-1-(1H-Benzo[d]imidazol-2-yl)-2-(4-methoxyphenyl)ethyl)-3-((R)-1-acetylpiperidin-3-yl)urea]
18 | COc1ccc(C[C@@H](NC(=O)N[C@H]2CC[C@H](O)CC2)c2nc3cc([N+](=O)[O-])ccc3[nH]2)cc1 [Example 148, 1-(trans-4-Hydroxycyclohexyl)-3-((R)-2-(4-methoxyphenyl)-1-(5-nitro-1H-benzo[d]imidazol-2-yl)ethyl)urea]
8.7 | COc1ccc(C[C@@H](NC(=O)NC2CC(C)(C)NC(C)(C)C2)c2nc3ccc(C#N)cc3[nH]2)cc1 [Example 153, (R)-1-(1-(6-Cyano-1H-benzo[d]imidazol-2-yl)-2-(4-methoxyphenyl)ethyl)-3-(2,2,6,6-tetramethylpiperidin-4-yl)urea]
6.2 | COc1ccc(C[C@@H](NC(=O)N[C@H]2CC[C@H](O)CC2)c2nc3ccc(C#N)cc3[nH]2)cc1 [Example 152, 1-((R)-1-(6-Cyano-1H-benzo[d]imidazol-2-yl)-2-(4-methoxyphenyl)ethyl)-3-(trans-4-hydroxycyclohexyl)urea]
2.1 | COc1ccc(C[C@@H](NC(=O)NC23CCC(O)(CC2)CC3)c2nc3ccccc3[nH]2)cc1 [Example 166, (R)-1-(1-(1H-Benzo[d]imidazol-2-yl)-2-(4-methoxyphenyl)ethyl)-3-(4-hydroxybicyclo[2.2.2]octan-1-yl)urea]

Reference: patent US9663473B2 (Actelion Pharmaceuticals Ltd, priority 2013, dated 2017)
